Legend:
[1] = biological target: T1, P. pastoris-expressed Der f 1 protein (Dermatophagoides farinae, UniProt P16311, D282V); test: Inhibition of rDer f 1 cysteine protease activity by E-64; type: biochemical, D. farinae; conditions: E-64 1 μg/ml
T1 construct: The Der f 1 protein secreted as a mature form by recombinant cell P. pastoris HCY215; S. cerevisiae alpha factor signal peptide (with KEX2 site and Glu-Ala spacer) (N, cleaved yes); made in house; host or cells: Pichia pastoris strain X33 transformed with pBC128 (recombinant cell HCY215)
Description: Native Der f 1 is believed to be a cysteine protease, based on homology to papain; see, for example, Chua et al, 1992, J Exp Med 167, 175-182. The Der f 1 protein secreted as a mature form by recombinant cell P. pastoris HCY215 (i.e., P. pastoris strain X33 transformed with plasmid pBC128 containing nucleic acid molecule nDerf1909b (coding strand of SEQ ID NO:28) which encodes the pro-form of Der f 1 (amino acid sequence SEQ ID NO:29)) was tested for cysteine protease activity in the following manner. Three concentrations of protein were tested for their abilities to cleave an artificial substrate in the presence or absence of a cysteine protease inhibitor. Specifically, three pairs of samples containing 0.56 μg, 1.1 μg, or 5.6 μg of P. pastoris-expressed Der f 1 protein, respectively, were incubated for 30 minutes at room temperature in 20 μl of 50 mM Tris-HCl, pH 8. One member of each pair also contained the irreversible cysteine protease inhibitor E-64 at a concentration of 1 μg/ml. After the pre-incubation, 100 μl of 50 μM quenched fluorogenic substrate z-Val-Leu-Arg-AMC (available from Enzyme Systems Products, Livermore, Calif.) was added to all six samples, and the samples were incubated for 2 hours at room temperature. Fluorescence was measured using a Perkin Elmer Luminescence Spectrometer (model #LS50B) at an excitation wavelength of 380nm and an emission wavelength of 460 nm.

IgE = conditions: cited from earlier work

T1 sequence (P16311 99-321 D282V): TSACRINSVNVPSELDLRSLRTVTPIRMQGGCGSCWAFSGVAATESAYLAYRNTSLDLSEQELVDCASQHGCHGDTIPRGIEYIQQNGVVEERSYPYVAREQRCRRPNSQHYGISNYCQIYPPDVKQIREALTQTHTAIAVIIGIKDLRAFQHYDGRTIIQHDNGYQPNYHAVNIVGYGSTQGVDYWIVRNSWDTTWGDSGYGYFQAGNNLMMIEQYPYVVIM

Row | Molecule | % Inhibition E-64 ([1]; 0.56 micrograms rDer f 1) [%] | % Inhibition E-64 ([1]; 1.1 micrograms rDer f 1) [%] | % Inhibition E-64 ([1]; 5.6 micrograms rDer f 1) [%] | sera reactive, of 11 sera reactive with the native protein (IgE; Chua et al) | IgE reactivity relative to the native protein (IgE; literature reports (Chua et al 1992; Shoji et al 1996, 1997))
1 | CC(C)C[C@H](NC(=O)[C@H]1O[C@@H]1C(=O)O)C(=O)NCCCCN=C(N)N [E-64] | 65 | 55 | 76 | – | –
2 | S. cerevisiae-expressed Der p 1 proenzyme: Recombinant Der p 1 pro-form produced in S. cerevisiae, solubilized and renatured (Chua et al) (protein, UniProt P08176 19-320, looked up, pro-form S. cerevisiae-expressed) pro-form: RPSSIKTFEEYKKAFNKSYATFEDEEAARKNFLESVKYVQSNGGAINHLSDLSLDEFKNRFLMSAEAFEHLKTQFDLNAETNACSINGNAPAEIDLRQMRTVTPIRMQGGCGSCWAFSGVAATESAYLAYRNQSLDLAEQELVDCASQHGCHGDTIPRGIEYIQHNGVVQESYYRYVAREQSCRRPNAQRFGISNYCQIYPPNVNKIREALAQTHSAIAVIIGIKDLDAFRHYDGRTIIQRDNGYQPNYHAVNIVGYSNAQGVDYWIVRNSWDTNWGDNGYGYFAANIDLMMIEEYPYVVIL | – | – | – | 9 | about 80%

Source: patent publication US8465945B2, “Method for production and use of mite group 1 proteins” (Merck Patent GmbH, priority 1999, dated 2013)
